Results as given in ChEMBL document CHEMBL3045099, “Action mechanism of isoxazoline-type herbicides” (J Pestic Sci, 2012).

Legend:
Echinochloa crus-galli [1] = test: Ratio of I50 for very long-chain fatty acid elongase in Echinochloa crus-galli (barnyard grass) to EC50 for shoot elongation inhibition in Echinochloa crus-galli (barnyard grass)
Echinochloa crus-galli [2] = test: Inhibition of shoot elongation in Echinochloa crus-galli (barnyard grass); type: functional, organism-based
[3] = Inhibition of Very long-chain fatty acid elongase in Echinochloa crus-galli (barnyard grass); details: read-out: I50

Cn1nc(C(F)(F)F)c(CS(=O)(=O)C2=NOC(C)(C)C2)c1OC(F)F [PYROXASULFONE]
Ratio (Echinochloa crus-galli [1]): 10
EC50 (Echinochloa crus-galli [2]): 30 nM
IC50 [3]: 300 nM

CCOc1cc(Cl)c(CS(=O)(=O)C2=NOC(C)(C)C2)cc1Cl [FENOXASULFONE]
Ratio (Echinochloa crus-galli [1]): 10
EC50 (Echinochloa crus-galli [2]): 30 nM
IC50 [3]: 300 nM
